According to US12729393B2, “Agent interaction effects determination” (priority 2020, dated 2026):

These compounds were tested on Escherichia coli reference strain K12-MG1655 (assay: CombiANT self-interaction experiments (3 reservoirs filled with the same antibiotic)). Settings: 3 biological replicates; Wilcoxon signed rank test.
Format: cell-based
Source text: FIG. 17 illustrates self-interaction experiments of the Escherichia coli reference strain K12-MG1655. FICi for all self-interactions for the 8 antibiotics AMP, CIP, CTX, GEN, FOF, NIT, MEC, TMP. Bars indicate average FICi values and standard deviation (SD) of 3 biological replicates.
First, as controls, we performed self-interaction experiments, where the 3 culture container insert reservoirs were filled with the same antibiotic. […] Next, to verify that the CombiANT™ assay produced valid synergy quantifications, we ran an accuracy and precision study. We tested all pairwise antibiotic interactions in the two Gram-negative reference strains E. coli […] and P. aeruginosa PA14, and the Gram-positive S. aureus reference strain ATCC29213 against a panel of 4 antibiotics. The tested antibiotics, ampicillin (AMP), cefotaxime (CTX), ciprofloxacin (CIP), and gentamicin (GEN), spanned three distinct mechanisms of action and are commonly used in treatments of bacteremia and sepsis caused by these bacterial species. FICi indices were calculated for all 6 pair-wise interactions and all three strains (FIG. 18A).

Row | Compound | nature of self-interaction (FICi)
1 | CC1(C)S[C@@H]2[C@H](NC(=O)[C@H](N)c3ccccc3)C(=O)N2[C@H]1C(=O)O [AMP, ampicillin] | additive
2 | O=C(O)c1cn(C2CC2)c2cc(N3CCNCC3)c(F)cc2c1=O [CIP, ciprofloxacin] | additive
3 | CO/N=C(\C(=O)N[C@@H]1C(=O)N2C(C(=O)O)=C(COC(C)=O)CS[C@H]12)c1csc(N)n1 [CTX, cefotaxime] | additive
4 | C[C@@H]1O[C@@H]1P(=O)(O)O [FOF, fosfomycin] | additive
5 | CC1(C)S[C@@H]2[C@H](/N=C/N3CCCCCC3)C(=O)N2[C@H]1C(=O)O [MEC, mecillinam] | additive
6 | COc1cc(Cc2cnc(N)nc2N)cc(OC)c1OC [TMP, trimethoprim] | additive
7 | gentamicin | additive
